Reference: ChEMBL document CHEMBL1156849, “Synthesis, immunosuppressive activity and structure-activity relationship study of a new series of 4-N-piperazinyl-thieno[2,3-d]pyrimidine analogues” (Bioorg Med Chem Lett, 2010)

System: Lymphocyte
Assay: Immunosuppressive activity in lymphocytes by mixed lymphocyte reaction assay
Format: functional, cell-based

IC50 [nM]	Compound
6990	Nc1nc(N2CCN(C(=O)CCc3ccccc3)CC2)c2cc(-c3ccc(F)cc3)sc2n1
66	Nc1nc(N2CCN(C(=O)COc3ccc(F)cc3)CC2)c2ccsc2n1
320	Nc1nc(N2CCN(C(=O)COc3ccc(Br)cc3)CC2)c2ccsc2n1
930	Cc1cccc(NC(=O)N2CCN(c3nc(N)nc4sccc34)CC2)c1
6700	Nc1nc(N2CCN(C(=O)Nc3ccc(Cl)cc3)CC2)c2ccsc2n1
8200	CC(C)N(C(=O)N1CCN(c2nc(N)nc3sc(-c4ccc(F)cc4)cc23)CC1)C(C)C
8120	CN(C(=O)CN1CCN(c2nc(N)nc3sccc23)CC1)c1ccccc1
> 10000	Nc1nc(N2CCN(C(=O)C3CCCCC3)CC2)c2cc(-c3ccc(F)cc3)sc2n1
330	Nc1nc(N2CCN(C(=O)COc3ccc(Cl)cc3)CC2)c2ccsc2n1
780	Nc1nc(N2CCN(C(=O)COc3ccccc3)CC2)c2ccsc2n1
210	Cc1cccc(OCC(=O)N2CCN(c3nc(N)nc4sccc34)CC2)c1
72	COc1ccc(OCC(=O)N2CCN(c3nc(N)nc4sccc34)CC2)cc1
> 10000	Nc1nc(N2CCN(C(=O)c3cccnc3)CC2)c2cc(-c3ccc(F)cc3)sc2n1
9640	Nc1nc(N2CCN(CCOc3ccccc3)CC2)c2ccsc2n1
54	C/C=C/C[C@@H](C)[C@@H](O)[C@H]1C(=O)N[C@@H](CC)C(=O)N(C)CC(=O)N(C)[C@@H](CC(C)C)C(=O)N[C@@H](C(C)C)C(=O)N(C)[C@@H](CC(C)C)C(=O)N[C@@H](C)C(=O)N[C@H](C)C(=O)N(C)[C@@H](CC(C)C)C(=O)N(C)[C@@H](CC(C)C)C(=O)N(C)[C@@H](C(C)C)C(=O)N1C [CYCLOSPORINE]
